The results in this text go back to ChEMBL document CHEMBL1201862, “PubChem BioAssay data set” (2004).

Experiment in all cases: NCI-60 cell line screen, 48 h
In test [1] the test system is M14.
Test [2] concerns RXF 393.
Test [3] deals with T47D.
Test [4] deals with RPMI-8226.
Test [5] deals with UO-31.
For test [6], the system named is MCF7.
In test [7] the test system is MDA-MB-231.
Test [8] concerns SNB-75.
Test [9] concerns KM12.
The subject of test [10] is SF-295.
Test [11] relates to UACC-257.
Test [12] concerns SNB-19.
In test [13] the test system is A549.
Test [14] has as its system SN12C.
Test [15] concerns NCI/ADR-RES.
Test [16] has as its system IGROV-1.
Test [17] concerns SK-MEL-5.
Test [18] concerns HOP-62.
Test [19] concerns SK-OV-3.

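1) Cells in 96-well plates. 2) Compound, 48 h, 5 concentrations. 3) Linear interpolation between surrounding doses. 4) Unreached endpoint = highest concentration. GI50: concentration for 50% inhibition of growth.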 Activity calls are given as the source filed them. No stated cut-off is given here; in the data, active = GI50 up to about 1.1 µM and inactive = higher.

In the case of `CCOC(=O)c1cc2cc([N+](=O)[O-])ccc2oc1=O`, the GI50 in test [1] was > 100 µM (inactive); in test [2], > 100 µM (inactive); in test [3], > 100 µM (inactive); in [4], > 100 µM (inactive); in test [5], 35.6 µM (inactive); in [6], 62.1 µM (inactive). In addition, the GI50 in [7], in test [8], in test [9], in test [10], in test [11] and in test [12] was > 100 µM (inactive) in each case. Also, the GI50 in test [13], in test [14], in test [15], in test [16], in test [17] and in test [18] was > 100 µM (inactive) throughout.

As to `C[C@@H](NC(=O)Cn1c(Cl)nc2ccccc21)c1ccccc1`, the GI50 is > 100 µM (inactive) in [1]; > 100 µM (inactive) in test [2]; 36.2 µM (inactive) in test [3]; > 100 µM (inactive) in test [4]; > 100 µM (inactive) in test [5]; > 100 µM (inactive) in test [6]. For the same compound, the GI50 in test [7], in test [8], in test [19], in test [9], in [10] and in [11] was > 100 µM (inactive) each time. The GI50 in [12] was > 100 µM (inactive); in test [13], > 100 µM (inactive); in [15], 33 µM (inactive); in [17], 17.5 µM (inactive); in test [18] it was > 100 µM (inactive).

On to `CCOC(=O)/C=C(/C(=O)OCC)n1ccc(N)nc1=O`, for which the GI50 in [1], in test [3], in test [4], in test [5], in test [6] and in [7] was > 100 µM (inactive) in each case. Also, the GI50 in [8] was 95.1 µM (inactive); in test [19] it was > 100 µM (inactive); in test [9], > 100 µM (inactive); in [10], > 100 µM (inactive); in test [11], > 100 µM (inactive); in [12] it was > 100 µM (inactive). In addition, the GI50 in [13], in test [14], in [15], in [16], in test [17] and in test [18] was > 100 µM (inactive) throughout.

On to `CO/C(=N\N=C\c1ccc(C(F)(F)F)cc1)c1ccncc1`, for which the GI50 in test [1], in [2], in test [3], in test [4], in [5] and in test [6] was > 10 µM (inactive) throughout. The GI50 in test [7], in [9], in test [10], in [11], in test [12] and in test [13] was > 10 µM (inactive) in each case. Further, the GI50 in test [14], in test [15] and in test [18] was > 10 µM (inactive) each time.

On to `CC(C)(Cc1ccccc1)Cc1cc(O)ccc1O`, for which the GI50 in test [1] is 17.6 µM (inactive); in [2], 13.6 µM (inactive); in test [3], 5.9 µM (inactive); in test [5], 13.4 µM (inactive); in test [6] it was 23.4 µM (inactive); in test [7] it was 20 µM (inactive). Moreover, the GI50 in test [8] is 23 µM (inactive); in test [19], 24.7 µM (inactive); in [9] it was 15 µM (inactive); in [10], 18 µM (inactive); in test [11] it was 13.9 µM (inactive); in test [12], 17.7 µM (inactive). Further, the GI50 was 23.7 µM (inactive) in test [13]; 16.7 µM (inactive) in [14]; 16.4 µM (inactive) in [15]; 26.9 µM (inactive) in [16]; 30.1 µM (inactive) in test [18].

Regarding `CNc1cc(OCc2ccccc2)c(OC)cc1C(=O)N1CCC[C@H]1CO`, the GI50 in test [1] was > 100 µM (inactive); in test [2], > 100 µM (inactive); in [3] it was > 100 µM (inactive); in test [5], 63.2 µM (inactive); in test [6], > 100 µM (inactive); in test [7], > 100 µM (inactive). For the same compound, the GI50 in test [8], in test [19], in [9], in test [10], in test [11] and in test [12] was > 100 µM (inactive) each time. Also, the GI50 in test [13], in test [14], in test [15], in test [16], in [17] and in [18] was > 100 µM (inactive) each time.

For the compound `CSc1ccccc1NC1=NCCO1`, the GI50 in [1], in test [2], in test [3], in test [4], in test [5] and in test [6] was > 100 µM (inactive) each time. Moreover, the GI50 in test [7], in test [9], in test [10], in test [11], in test [12] and in test [13] was > 100 µM (inactive) in each case. Besides, the GI50 in test [14], in test [15], in [16], in test [17] and in test [18] was > 100 µM (inactive) each time.

With `CCOP(=O)(CC(=O)C1CC1)OCC`, the GI50 in test [1] was > 100 µM (inactive); in test [2], 0.01 µM (active); in test [3], > 100 µM (inactive); in test [5] it was > 100 µM (inactive); in test [6] it was > 100 µM (inactive); in test [7] it was > 100 µM (inactive). Further, the GI50 in test [8], in test [19], in test [9], in test [10], in test [11] and in [12] was > 100 µM (inactive) in each case. The GI50 in test [13], in test [14], in [15], in [16], in [17] and in test [18] was > 100 µM (inactive) throughout.

For the compound `OCCSCc1cc2c(O)c(c1)Cc1cc(CSCCO)cc(c1O)Cc1cc(CSCCO)cc(c1O)Cc1cc(CSCCO)cc(c1O)C2`, the GI50 in test [1] was 3.08 µM (inactive); in test [2], 4.58 µM (inactive); in [3] it was 6.47 µM (inactive); in [4] it was 3.95 µM (inactive); in [5], 13.8 µM (inactive); in test [6] it was 3.91 µM (inactive). The GI50 in [7] was 2.54 µM (inactive); in test [19] it was 8.47 µM (inactive); in test [9], 4.28 µM (inactive); in test [10], 5.02 µM (inactive); in [11], 4.23 µM (inactive); in [12] it was 4.69 µM (inactive). Besides, the GI50 in test [13] was 4.86 µM (inactive); in test [14], 4.59 µM (inactive); in test [15] it was 22.2 µM (inactive); in test [16], 3.65 µM (inactive); in test [17], 2.69 µM (inactive); in test [18], 5.01 µM (inactive).

For `C/C=C(/C)C(=O)O[C@H]1CCN2CC=C(COC(=O)[C@@](O)([C@H](C)OC)C(C)(C)O)[C@H]12`, the GI50 in test [1], in test [3], in test [4], in [5], in test [6] and in test [7] was > 100 µM (inactive) each time. The GI50 in test [8], in test [19], in [9], in [10], in test [11] and in test [12] was > 100 µM (inactive) in each case. The GI50 in [13], in test [14], in [15], in test [16], in test [17] and in test [18] was > 100 µM (inactive) throughout.

As for `CCOc1ccc2c(c1)c(CC(=O)O)cn2C`, the GI50 in test [1], in test [2], in [3], in test [4], in test [5] and in test [6] was > 100 µM (inactive) in each case. Moreover, the GI50 in [7], in test [19], in test [9], in test [10], in [11] and in [12] was > 100 µM (inactive) each time. Further, the GI50 in test [13], in [14], in [15] and in [18] was > 100 µM (inactive) in each case.
